Experimental data reported in US20150072968A1, “Treating Infections with Ceftolozane/Tazobactam in Subjects Having Impaired Renal Function” (Calixa Therapeutics, Inc., priority 2013, published 2015).
Where two headings read alike, the source gives them in different places.

What was measured:
[1] = Pharmacokinetics of ceftolozane/tazobactam in healthy volunteers; assay type: in vivo, human
[2] = Population pharmacokinetic analysis of 10 clinical studies (Example 7); assay type: in vivo, human
Description: Base model development. […] Intrinsic covariates analyzed included body weight, age, gender, ethnicity, and baseline calculated CrCL). The CrCL was estimated using the Cockcroft-Gault formula: […] […] Final population PK model: evaluation and performance. […] Smaller shrinkage ≦0.2 indicates good individual estimates.

[3] = Phase 1 single dose PK of 750 mg ceftolozane/tazobactam in severe renal impairment and ESRD on hemodialysis (Example 8); assay type: in vivo, human; details: for AUC(0-t) / Cmax / half-life / Tmax / AUC(0-inf) / clearance / Vd: both sexes, human, plasma; for Cmax: read-out: Cmax, Mean (CV %); for half-life: read-out: t1/2, Mean (CV %) (converted); for Tmax: read-out: tmax, Median (minimum, maximum); for AUC(0-inf): read-out: AUC∞, Mean (CV %); for clearance: read-out: CL, Mean (CV %) (converted); for Vd: read-out: Vss, Mean (CV %)
Description: This was a Phase 1, multicenter, prospective, open-label study of 750 mg ceftolozane/tazobactam (as CXA-201) administered IV in male and female adult subjects with severe renal impairment (estimated CLCR<30 mL/min) and subjects with end-stage renal disease (ESRD) on hemodialysis (HD). The primary objective of the study was to determine the PK profile of ceftolozane/tazobactam in subjects with severe renal impairment and subjects with ESRD on HD and to determine the effect of HD on the clearance of ceftolozane/tazobactam.
Subjects with severe renal impairment received a single IV 1-hour infusion of 750 mg ceftolozane/tazobactam on Day 1. […] Subjects in this cohort received an IV dose of 750 mg ceftolozane/tazobactam as a 1 hour infusion immediately after their first HD session on Day 1 (postdialysis, approximately 72 hours prior to the next HD session) and a second dose of ceftolozane/tazobactam approximately 2 hours before their second HD session on Day 4 of the study. Infusion of ceftolozane/tazobactam was completed approximately 1 hour before the start of HD.
Subjects in both cohorts had urine (if not anuric) and plasma samples collected for determination of levels of ceftolozane, tazobactam and the M1 metabolite of tazobactam; subjects in the ESRD on HD cohort also had dialysate fluid samples collected for PK assessment. Plasma, urine, and dialysate levels of ceftolozane, tazobactam, and its metabolite M1 collected over a prespecified interval were determined by LC/MS/MS assay.
All subjects underwent hemodialysis for 3 to 4 hours using a high-flux membrane (either 1.4, 1.8, or 1.9 m^2) on Days 1, 4, and 6 as scheduled. Average blood flow rate was 264 to 600 mL/min and average dialysis flow rate was either 600 or 800 mL/min for all subjects with ESRD.

clinical = details: human, in vivo
Description: CXA-201 plasma concentrations from 6 subjects with ESRD following a single dose without HD and a second dose with HD were used to develop a pPK model (Phoenix NLME, Pharsight).

[4] = Phase I PK studies in subjects with varying degrees of renal function (Example 11); assay type: in vivo, human
Description: Male and female subjects, aged 18 to 79 years, with varying degrees of renal function were enrolled in two, prospective, open-label, phase I studies of intravenous ceftolozane/tazobactam. A total of 36 subjects were enrolled into cohorts based on degree of renal function: normal (n=11), mild impairment (n=6), moderate impairment (n=7), severe impairment (n=6), and ESRD on HD (n=6). To ensure subjects with ESRD were receiving effective HD, a target adequacy of HD calculated from the pre- and post-blood urea nitrogen ratios (Kt/V) of at least 1.2 for a minimum of 3 months prior to enrollment was required. Renal impairment groups were classified according to the 2010 U.S.

[5] = cited from earlier work
[6] = cited from earlier work; remark: listed apart in the source
P. aeruginosa = details: neutropenic murine-thigh infection model; cited from earlier work
[7] = intravenous, 750 mg, ESRD on HD, second infusion Day 4, start of infusion to end of dialysis
[8] = iv, 750 mg, ESRD on HD, Day 1 IV infusion of 750 mg (non-hemodialysis phase)
[9] = iv, 750 mg, ESRD on HD, second IV infusion of 750 mg on Day 4 (during HD)
[10] = iv, 750 mg, severe renal impairment, single IV 1-hour infusion of 750 mg ceftolozane/tazobactam
[11] = moderate renal impairment, single 1,000 mg/500 mg dose
[12] = severe renal impairment, single 500 mg/250 mg dose

With `Cn1c(N)c(NC(=O)NCCN)c[n+]1CC1=C(C(=O)[O-])N2C(=O)[C@@H](NC(=O)/C(=N\OC(C)(C)C(=O)O)c3nsc(N)n3)[C@H]2SC1` [Ceftolozane, (6R,7R)-3-[(5-amino-4-{[(2-aminoethyl)carbamoyl]amino}-1-methyl-1H-pyrazol-2-ium-2-yl)methyl]-7-({(2Z)-2-(5-amino-1,2,4-thiadiazol-3-yl)-2-[(1-carboxy-1-methylethoxy)imino]acetyl}amino)-8-oxo-5-thia-1-azabicyclo[4.2.0]oct-2-ene-2-carboxylate] the clearance ([1]; human, plasma, intravenous, after a single dose of CXA-201, read-out: plasma CL) was 68.3 to 112 mL/min, the CL renal ([1]; human, urine and plasma, intravenous, after a single dose of CXA-201, read-out: renal clearance) was 56.8 to 112 mL/min and the “excreted in the urine as unchanged parent drug” value ([1]; single 1.5 g intravenous dose of CXA-201, healthy male adults) was “greater than 95%”. The Vc ([2]; cIAI) was 18.2 L, the Vc ([2]; cUTI, at 74 kg body weight) was 13.8 L and the “between-subject variability (BSV) of CL” value ([2]; final population PK model) was 33.0%. For the same compound, the clearance ([2]; human, plasma, intravenous, patients with cIAI, at CrCL=109 mL/min, read-out: CL (converted)) was 104 mL/min, the “CL higher than that in healthy subjects” value ([2]; patients with cUTI and cIAI) was “about 20%” and the CL ([2]; patients with cUTI, at CrCL=109 mL/min) was 6.18 L/h. The AUC(0-t) ([3]; intravenous, 750 mg, ESRD on HD, second infusion Day 4, approximately 6 hours from start of infusion to end of dialysis, read-out: AUClast, Mean (CV %)) was 87.5 µg·h/mL, the Cmax [3, 7] was 40900 ng/mL and the half-life [3, 7] was 1.25 h. For the same compound, the Tmax [3, 7] was 1 h, the AUC(0-t) ([3]; intravenous, 750 mg, subjects with ESRD, read-out: Exposure (AUC48h) After HD (Day 1), Median (Range)) was 903 µg·h/mL and the AUC(0-t) ([3]; intravenous, 750 mg, subjects with ESRD, read-out: Exposure (AUC48h) During HD (Day 3), Median (Range)) was 298 µg·h/mL. The AUC(0-inf) [3, 8] was 1680 µg·h/mL, the clearance [3, 8] was 6.67 mL/min and the Cmax [3, 8] was 44500 ng/mL. The Vd [3, 8] was 19.2 L, the half-life [3, 8] was 39.8 h and the AUC(0-t) ([3]; iv, 750 mg, ESRD on HD, Day 1 IV infusion of 750 mg (non-hemodialysis phase), through 48 hours, read-out: AUClast, Mean (CV %)) was 910 µg·h/mL. For the same compound, the Cmax [3, 9] was 40900 ng/mL, the half-life [3, 9] was 43.5 h and the AUC(0-t) ([3]; iv, 750 mg, ESRD on HD, second IV infusion of 750 mg on Day 4 (during HD), through 44 hours, read-out: AUClast, Mean (CV %)) was 304 µg·h/mL. For the same compound, the AUC(0-t) ([3]; iv, 750 mg, severe renal impairment, single IV 1-hour infusion of 750 mg ceftolozane/tazobactam, through 48 hours, read-out: AUClast, Mean (CV %)) was 511 µg·h/mL, the Cmax [3, 10] was 49900 ng/mL and the AUC(0-inf) [3, 10] was 537 µg·h/mL. The clearance [3, 10] was 16.7 mL/min, the Vd [3, 10] was 13.8 L and the half-life [3, 10] was 11.1 h. The Tmax ([3]; ESRD on HD, second IV infusion of 750 mg on Day 4 (during HD)) was 1 h, the “AUC48h Ratio (Day 3:1), Median (Range)” value ([3]; subjects with ESRD, during HD vs after HD) was 0.34 (0.26 − 0.48) and the “Percent Removed, Median (Range)” value ([3]; subjects with ESRD, hemodialysis) was 66 (52 − 74) Percent. For the same compound, the Vd (clinical) was 6 L, the clearance (clinical) was 5.67 mL/min and the “increase of CL by HD” value (clinical) was 60 fold. For the same compound, the “increase of Vc by HD” value (clinical) was 4.7 fold, the extraction ratio ([4]; 1 h after the start of HD) was 42% and the extraction ratio ([4]; 2 h after the start of HD) was 48%. For the same compound, the “median Cmax in plasma higher compared with normal renal function, dose normalized” value ([4]; ESRD during non-HD) was 1.2 fold, the “average extraction ratio during HD” value ([4]; ESRD on HD) was 46% and the “median RDHD (percent reduction in plasma concentration during HD)” value ([4]; ESRD on HD) was 92%. The “reduction in overall exposure based on the AUC0-∞ on and off HD” value ([4]; ESRD on HD) was “approximately 66%”, the “plasma concentration rebound peak following HD, of the original Cmax” value ([4]; ESRD, period following HD) was “approximately 17%” and the extraction ratio ([4]; at end of HD) was 47%. The clearance ([4]; both sexes, human, dialysate and plasma, intravenous, ESRD on HD, read-out: median dialysis clearance (CLD) (converted)) was 95.8 mL/min, the half-life ([4]; both sexes, human, plasma, intravenous, ESRD on HD, read-out: t1/2 during the HD period (converted)) was 1.13 h and the “increase of median AUC0-∞ compared with normal renal function” value [4, 11] was 2.5 fold. The “increase of median Cmax compared with normal renal function” value [4, 11] was 1.2 fold, the “increase of median AUC0-∞ compared with dose-normalized exposure in normal renal function” value [4, 12] was 4.4 fold and the “increase of median Cmax compared with dose-normalized exposure in normal renal function” value [4, 12] was 1.3 fold. For the same compound, the “terminal elimination half-life (t½β)” value ([5]; healthy volunteers) was “approximately 2.5 hours”, the “Terminal elimination half-lives (t1/2)” value ([5]; patients with normal renal function) was “approximately 2.5 h” and the protein binding [6] was “approximately 20%”. The “free-drug (f) % T>MIC associated with a 1-log10 CFU reduction from baseline” value (P. aeruginosa) was 32.2 and the “free-drug (f) % T>MIC associated with net bacterial stasis” value (P. aeruginosa) was 24.8.
